Test results from patent publication US20180362935A1, “A renal cell line with stable transporter expression” (Stichting Katholieke Universiteit, priority 2015, published 2018).
Several values for one entry are separate records, joined by “and”; a condition that tells them apart may be missing. Equal entries are not always repeated. Where two headings read alike, the source gives them in different places. Blank lines part the entries; values can stand above or below the compound they belong to.

Legend:
CHO-OAT1 = molecular target: T1, CHO-OAT1 (Homo sapiens, UniProt Q4U2R8); conditions: read-out: KI (literature), cited from earlier work
T1 construct: host or cells: CHO
T1 sequence (Q4U2R8 1-563): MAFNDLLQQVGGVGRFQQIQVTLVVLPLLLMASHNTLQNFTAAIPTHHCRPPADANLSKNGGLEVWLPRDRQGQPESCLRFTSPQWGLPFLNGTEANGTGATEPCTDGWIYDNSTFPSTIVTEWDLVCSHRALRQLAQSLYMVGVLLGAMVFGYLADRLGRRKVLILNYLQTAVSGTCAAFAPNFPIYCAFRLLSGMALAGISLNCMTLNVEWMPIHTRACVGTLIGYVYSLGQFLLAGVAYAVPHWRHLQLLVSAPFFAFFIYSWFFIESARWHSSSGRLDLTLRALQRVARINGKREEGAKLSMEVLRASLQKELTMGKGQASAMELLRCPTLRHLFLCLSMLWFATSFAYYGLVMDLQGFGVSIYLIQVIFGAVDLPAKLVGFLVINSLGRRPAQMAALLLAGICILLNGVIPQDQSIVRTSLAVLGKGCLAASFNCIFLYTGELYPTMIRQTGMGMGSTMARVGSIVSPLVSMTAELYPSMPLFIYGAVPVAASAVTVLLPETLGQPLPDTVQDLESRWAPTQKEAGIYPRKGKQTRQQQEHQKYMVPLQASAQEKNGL

ciPTEC-OAT1 = assay: MTT viability assay in ciPTEC-OAT1; type: cell-based, human; conditions: for Cell viability (MTT) relative to no exposure: ciPTEC-OAT1, 1 mM, 48 h; for IC50: serum free medium, mean ± SEM, n ≥ 3
HeLa-OAT1 = molecular target: T2, HeLa-OAT1 (Homo sapiens, UniProt Q4U2R8); conditions: substrate PAH, HeLa-OAT1, Ref. 29; read-out: IC50 (literature); cited from earlier work
T2 construct: host or cells: HeLa
T2 sequence (Q4U2R8 1-563): T1 sequence (Q4U2R8 1-563)

hOAT1-CHO and HEK-OAT1 = conditions: Ref 35, 37, cited from earlier work
OAT1 [1] = molecular target: T3, OAT1 (Homo sapiens, UniProt Q4U2R8)
T3 sequence (Q4U2R8 1-550 isoform Q4U2R8-2): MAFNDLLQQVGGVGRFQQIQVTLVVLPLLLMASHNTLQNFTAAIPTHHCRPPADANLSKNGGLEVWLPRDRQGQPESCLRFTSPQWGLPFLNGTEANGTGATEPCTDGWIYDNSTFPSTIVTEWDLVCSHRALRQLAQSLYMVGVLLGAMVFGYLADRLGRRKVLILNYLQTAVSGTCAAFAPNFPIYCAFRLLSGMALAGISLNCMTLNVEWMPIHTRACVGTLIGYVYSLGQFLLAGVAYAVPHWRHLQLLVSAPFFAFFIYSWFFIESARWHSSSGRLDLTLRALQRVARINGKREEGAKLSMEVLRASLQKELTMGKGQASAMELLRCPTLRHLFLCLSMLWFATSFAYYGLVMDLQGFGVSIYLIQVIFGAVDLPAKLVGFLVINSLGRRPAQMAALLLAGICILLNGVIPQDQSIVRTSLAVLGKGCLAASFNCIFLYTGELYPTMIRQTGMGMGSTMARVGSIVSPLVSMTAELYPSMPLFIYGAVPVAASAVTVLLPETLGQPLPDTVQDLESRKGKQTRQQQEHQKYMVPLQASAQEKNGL

OAT3 = molecular target: T4, OAT3 (Homo sapiens, UniProt Q8TCC7)
T4 sequence (Q8TCC7 1-542): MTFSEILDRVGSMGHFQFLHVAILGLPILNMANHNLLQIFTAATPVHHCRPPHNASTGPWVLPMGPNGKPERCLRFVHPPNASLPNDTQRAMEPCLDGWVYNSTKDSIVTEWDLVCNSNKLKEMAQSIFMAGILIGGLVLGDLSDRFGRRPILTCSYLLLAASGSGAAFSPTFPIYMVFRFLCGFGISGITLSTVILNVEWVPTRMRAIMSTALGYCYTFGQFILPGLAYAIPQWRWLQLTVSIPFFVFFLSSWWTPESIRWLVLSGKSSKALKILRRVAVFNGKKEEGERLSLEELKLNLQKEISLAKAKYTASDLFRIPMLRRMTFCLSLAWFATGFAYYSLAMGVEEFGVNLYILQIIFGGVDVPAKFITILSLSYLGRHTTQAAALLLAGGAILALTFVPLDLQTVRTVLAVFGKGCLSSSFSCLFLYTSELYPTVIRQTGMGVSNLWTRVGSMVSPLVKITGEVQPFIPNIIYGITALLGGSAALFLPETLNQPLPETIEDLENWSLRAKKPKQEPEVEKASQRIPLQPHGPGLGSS

Xenopus-OAT3 = molecular target: T5, Xenopus-OAT3 (Homo sapiens, UniProt Q8TCC7); conditions: substrate estrone sulfate, Xenopus-OAT3, References 50, 53; read-out: IC50 (literature); cited from earlier work
T5 construct: host or cells: Xenopus oocytes
T5 sequence (Q8TCC7 1-542): T4 sequence (Q8TCC7 1-542)

CHO-OAT3 = molecular target: T6, CHO-OAT3 (Homo sapiens, UniProt Q8TCC7); conditions: substrate Sitagliptin, CHO-OAT3, Reference 51; read-out: IC50 (literature); cited from earlier work
T6 construct: host or cells: CHO
T6 sequence (Q8TCC7 1-542): T4 sequence (Q8TCC7 1-542)

OCT2 = OCT2 (Homo sapiens, UniProt O15244); conditions: ASP+ 1 μM, 60 min, HBSS, 37° C.; similar IC50 in ciPTEC parent, ciPTEC-OAT1 and ciPTEC-OAT3 (p>0.05)
ciPTEC-OAT3 = assay: MTT viability assay in ciPTEC-OAT3
Procedure: (§1) Briefly, monolayers of ciPTEC (96-wells) were exposed to antivirals in serum-free medium (SFM) on day 6 of maturation. Cell toxicity was analyzed further in presence of multidrug resistance protein (MRP) efflux inhibitor MK571 (5 μM) and breast cancer resistance protein (BCRP) efflux inhibitor KO143 (10 μM). After incubation for 24, 48 and 72 h at 37° C., ciPTEC were washed and incubated with 0.5 mg/ml thiazolyl blue tetrazolium bromide (MTT, Sigma) for 3 h at 37° C. in absence of antivirals. Formazan crystals formed in viable cells were dissolved in dimethyl sulfoxide (DMSO, Merck, Whitehouse Station, USA) and optical density was measured (560 nm, background at 670 nm was subtracted) using Benchmark Plus (Bio-Rad, Hercules, USA).
(§2) Non-linear regression with variable slope constraining the top to 100% was used to fit the data after background subtraction with GraphPad Prism. Statistics was performed by two-way ANOVA (two-tailed, α=0.05) using GraphPad Prism as well. All data is presented as mean±SEM of at least three separate experiments (n=3) performed in triplicate, unless stated otherwise.

ciPTEC parent = assay: MTT viability assay in ciPTEC parent; type: cell-based, human; conditions: 10×Cmax (50 μM), with MRP4 inhibitor MK571 and BCRP inhibitor KO143
Procedure: as §1, §2

[2] = Varma et al., 2009; cited from earlier work
OAT1 [3] = assay: OAT1 gene expression in ciPTEC-OAT1 with or without EGF (quantitative PCR); type: cell-based, human; conditions: ciPTEC-OAT1, EGF 10 ng/mL, 48 hours
Procedure: ciPTEC-OAT1. 4B2 DSM ACC3279 was cultured in phenol red-free DMEM/F12 (Invitrogen, Breda, The Netherlands), as described in example 1 here above. Cells were seeded at a density of 63,000 cell/cm^2, cultured for 24 hours at 33° C. and subsequently at 37° C. for 7 days. To study the effects of EGF, matured ciPTEC-OAT1 were treated for 48 hours in the presence or absence of EGF (10 ng/mL).
OAT1 gene expression profiling was performed by isolating total RNA from cells grown in six-well plates, using an RNeasy Mini kit (Qiagen, Venlo, The Netherlands), according to the manufacturers specifications. Subsequently, cDNA was synthesized using the Omniscript RT-kit (Qiagen). Subsequently, quantitative PCR was performed in a CFX96 Real-Time PCR detection system (Bio-rad, Veenendaal, The Netherlands) according to the manufacturers conditions. GAPDH was used as reference gene for normalization and relative expression levels were calculated as fold change using the 2^−ΔΔCT method. The primer-probe sets for the quantitative PCR were obtained from Applied Biosystems: GAPDH—hs99999905 ml and OAT1—hs00537914.

[4] = 120 h, read-out: Inhibitory potency on cell viability, literature 120 h
[5] = read-out: Inhibitory potency on cell viability, literature 48 h, 48 h

Chain of OCT2 (O15244 whole entry): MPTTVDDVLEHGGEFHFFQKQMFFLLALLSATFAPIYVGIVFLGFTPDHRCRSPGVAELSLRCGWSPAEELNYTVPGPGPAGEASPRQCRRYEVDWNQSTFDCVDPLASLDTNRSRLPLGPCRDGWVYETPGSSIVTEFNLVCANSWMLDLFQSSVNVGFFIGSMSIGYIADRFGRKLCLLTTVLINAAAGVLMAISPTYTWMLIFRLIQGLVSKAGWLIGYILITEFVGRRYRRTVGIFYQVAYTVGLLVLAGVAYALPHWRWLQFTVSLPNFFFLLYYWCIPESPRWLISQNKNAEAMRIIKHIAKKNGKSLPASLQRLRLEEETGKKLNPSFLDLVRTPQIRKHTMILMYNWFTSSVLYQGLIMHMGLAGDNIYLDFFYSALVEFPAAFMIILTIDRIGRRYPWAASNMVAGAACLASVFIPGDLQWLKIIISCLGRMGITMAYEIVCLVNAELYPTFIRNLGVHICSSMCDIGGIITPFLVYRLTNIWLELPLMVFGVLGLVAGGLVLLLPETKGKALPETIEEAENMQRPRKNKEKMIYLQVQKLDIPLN

Compound: Nc1ncnc2c1ncn2CCOCP(=O)(O)O [Adefovir]
- Ki (CHO-OAT1; CHO-OAT1, substrate not given): 23.8 µM
- Cell viability (MTT) relative to no exposure (ciPTEC-OAT1): significantly affected
- IC50 (HeLa-OAT1): 8.1 µM
- IC50 (hOAT1-CHO and HEK-OAT1; [4]): 1.4 ± 0.7 µM
- IC50 (hOAT1-CHO and HEK-OAT1; [5]): 0.22 ± 0.08 µM
- IC50 (OAT1 [1]): 23 ± 4 µM

Compound: Nc1ccn(C[C@@H](CO)OCP(=O)(O)O)c(=O)n1 [Cidofovir]
- IC50 (hOAT1-CHO and HEK-OAT1; [4]): 3 ± 1 µM
- IC50 (hOAT1-CHO and HEK-OAT1; [5]): 0.5 ± 0.2 µM
- IC50 (OAT1 [1]): 71 ± 34 µM

- IC50 (OAT3): 215 ± 162 µM
- Inhibition of ASP+ uptake at OCT2 (OCT2): significant inhibition
- IC50 (OAT1 [1]): 654 ± 291 µM
Compound: CN/C(=N/CCSCc1nc[nH]c1C)NC#N [Cimetidine]
- IC50 (Xenopus-OAT3): 53 µM
- IC50 (CHO-OAT3): 79 µM

Compound: C[C@H](Cn1cnc2c(N)ncnc21)OCP(=O)(O)O [Tenofovir]
- Ki (CHO-OAT1; Ref. 35, substrate and cell line not given): 33.8 µM
- Cell viability (MTT) relative to no exposure (ciPTEC-OAT1): significantly affected
- IC50 (ciPTEC-OAT1; ciPTEC-OAT1, 24 h exposure, read-out: Inhibitory potency on cell viability (MTT), 24 h): 114 ± 25 µM
- IC50 (ciPTEC-OAT1; ciPTEC-OAT1, 72 h exposure, read-out: Inhibitory potency on cell viability (MTT), 72 h): 223 ± 67 µM
- IC50 (ciPTEC-OAT1; read-out: Inhibitory potency on cell viability (MTT), 48 h, ciPTEC-OAT1, 48 h exposure): 189 ± 48 µM
- IC50 (HeLa-OAT1): 29.3 µM
- Cell viability (MTT) relative to no exposure (ciPTEC-OAT3; ciPTEC-OAT3, 1 mM, 48 h): slightly decreased
- IC50 (hOAT1-CHO and HEK-OAT1; [4]): 21 ± 7 µM
- IC50 (hOAT1-CHO and HEK-OAT1; [5]): 10 ± 2 µM
- DDI index Cmax/IC50 (OAT1 [1]): 0.014 and 0.019
- IC50 (OAT1 [1]): 42 ± 8 µM

Compound: Cc1cn([C@H]2C[C@H](N=[N+]=[N-])[C@@H](CO)O2)c(=O)[nH]c1=O [Zidovudine]
- Cell viability with efflux inhibitors (ciPTEC-OAT1; ciPTEC-OAT1, 10×Cmax (50 μM), with MK571 and KO143): did not affect cell viability
- Cell viability as determined by the MTT assay (ciPTEC-OAT1; ciPTEC-OAT1 and ciPTEC-OAT3, exposure for 24-72 h): did not affect cell viability
- Cell viability with efflux inhibitors (ciPTEC-OAT3; ciPTEC-OAT3, 10×Cmax (50 μM), with MK571 and KO143): did not affect cell viability
- Cell viability with efflux inhibitors (ciPTEC parent): did not affect cell viability
- Fraction eliminated via the urine without metabolic alterations [2]: 23%

- Km (OAT3): 3.7 ± 0.5 µM
- Km (OAT1 [1]): 0.8 ± 0.1 µM
Compound: O=C1OC2(c3ccc(O)cc3Oc3cc(O)ccc32)c2ccccc21 [fluorescein]

- IC50 (OAT3): 152 ± 3 µM
Compound: Nc1ccc(C(=O)NCC(=O)O)cc1 [para-aminohippuric acid]

Compound: EGF: Epidermal growth factor (NSDSECPLSHDGYCLHDGVCMYIEALDKYACNCVVGYIGERCQYRDLKWWELR; Epidermal growth factor; UniProt P01133 971-1023, looked up)
- OAT1 gene expression (OAT1 [3]): significantly increased

Compound: estrone sulfate
- IC50 (OAT3): 2.1 ± 0.3 µM
- IC50 (Xenopus-OAT3): 3 µM
